According to ChEMBL document CHEMBL4387765, “Rational design, molecular docking and synthesis of novel homopiperazine linked imidazo[1,2-a]pyrimidine derivatives as potent cytotoxic and antimicrobial agents” (Bioorg Med Chem Lett, 2019):
Converted amounts (≈) assume the structure as drawn.

Legend:
[1] = test system: Candida albicans; test: Antifungal activity against Candida albicans MTCC 227 after 72 hrs by serial dilution method; type: functional; conditions: MTCC 227, 72 h
[2] = test system: A549; test: Cytotoxicity against human A549 cells assessed as reduction in cell growth measured after 48 hrs by sulforhodamine B assay; type: functional, cell-based; conditions: A549, 48 h
[3] = test system: Escherichia coli; test: Antibacterial activity against Escherichia coli MTCC 443 after 24 hrs by serial dilution method; type: functional
[4] = test system: Bacillus subtilis; test: Antibacterial activity against Bacillus subtilis MTCC 441 after 24 hrs by serial dilution method; type: functional; conditions: MTCC 441, 24 h
[5] = test system: DU-145; test: Cytotoxicity against human DU145 cells assessed as reduction in cell growth measured after 48 hrs by sulforhodamine B assay; type: functional, cell-based; conditions: DU-145, 48 h
[6] = test system: SK-OV-3; test: Cytotoxicity against human SKOV3 cells assessed as reduction in cell growth measured after 48 hrs by sulforhodamine B assay; type: functional, cell-based; conditions: SK-OV-3, 48 h
[7] = test system: HeLa; test: Cytotoxicity against human HeLa cells assessed as reduction in cell growth measured after 48 hrs by sulforhodamine B assay; type: functional, cell-based
[8] = test system: Priestia megaterium; test: Antibacterial activity against Bacillus megaterium MTCC 428 after 24 hrs by serial dilution method; type: functional; conditions: MTCC 428, 24 h
[9] = test system: Pseudomonas sp.; test: Antibacterial activity against Pseudomonas sp. 2496 after 24 hrs by serial dilution method; type: functional
[10] = test system: HeLa; test: Potency index, ratio of etoposide IC50 to test compound IC50 for human HeLa cells; type: functional
[11] = test system: DU-145; test: Potency index, ratio of etoposide IC50 to test compound IC50 for human DU145 cells; type: functional

| Compound | MIC [1] | IC50 [2] | MIC ([3]; MTCC 443, 24 h) | MIC [4] | IC50 [5] | IC50 [6] | IC50 [7] | MIC [8] | MIC ([9]; Pseudomonas sp., 2496, 24 h) | Ratio IC50 [10] | MIC [3] | MIC [9] | Ratio IC50 [11] |
| --- | --- | --- | --- | --- | --- | --- | --- | --- | --- | --- | --- | --- | --- |
| COc1ccc(S(=O)(=O)N2CCCN(c3ccn4cc(-c5ccc(F)cc5)nc4n3)CC2)cc1 | 9.4 µg/mL (≈ 19.5 µM) | 205 µM | > 100 µg/mL | 12.8 µg/mL (≈ 26.6 µM) | > 300 µM | > 300 µM | > 300 µM | 14.6 µg/mL (≈ 30.3 µM) | 88.2 µg/mL (≈ 183 µM) | – | – | – | – |
| CS(=O)(=O)N1CCCN(c2ccn3cc(-c4ccc(F)cc4)nc3n2)CC1 | 38.7 µg/mL (≈ 99.4 µM) | 8.41 µM | 18.4 µg/mL (≈ 47.2 µM) | 28.7 µg/mL (≈ 73.7 µM) | > 300 µM | > 300 µM | > 300 µM | 26.4 µg/mL (≈ 67.8 µM) | 34.6 µg/mL (≈ 88.8 µM) | – | – | – | – |
| Cc1ccc(S(=O)(=O)N2CCCN(c3ccn4cc(-c5ccc(F)cc5)nc4n3)CC2)cc1[N+](=O)[O-] | 81.6 µg/mL (≈ 160 µM) | > 300 µM | 4.2 µg/mL (≈ 8.23 µM) | 34.2 µg/mL (≈ 67 µM) | 16.9 µM | > 300 µM | > 300 µM | 58.8 µg/mL (≈ 115 µM) | 8.6 µg/mL (≈ 16.8 µM) | – | – | – | – |
| O=S(=O)(c1ccc(F)cc1F)N1CCCN(c2ccn3cc(-c4ccc(F)cc4)nc3n2)CC1 | > 100 µg/mL | > 300 µM | 4.6 µg/mL (≈ 9.44 µM) | 8.8 µg/mL (≈ 18.1 µM) | > 300 µM | 10 µM | > 300 µM | 10.4 µg/mL (≈ 21.3 µM) | 5.2 µg/mL (≈ 10.7 µM) | – | – | – | – |
| O=C(c1ccc(F)cc1)N1CCCN(c2ccn3cc(-c4ccc(F)cc4)nc3n2)CC1 | 74.2 µg/mL (≈ 171 µM) | 194 µM | 22.8 µg/mL (≈ 52.6 µM) | 34.4 µg/mL (≈ 79.4 µM) | > 300 µM | 12.7 µM | 6.12 µM | 36.7 µg/mL (≈ 84.7 µM) | 38.2 µg/mL (≈ 88.1 µM) | 1.31 | – | – | – |
| O=C(Cc1cccs1)N1CCCN(c2ccn3cc(-c4ccc(F)cc4)nc3n2)CC1 | 5.6 µg/mL (≈ 12.9 µM) | > 300 µM | 3.1 µg/mL (≈ 7.12 µM) | 44.2 µg/mL (≈ 101 µM) | 65.5 µM | 18.8 µM | > 300 µM | 38.6 µg/mL (≈ 88.6 µM) | 3.1 µg/mL (≈ 7.12 µM) | – | – | – | – |
| COC(=O)N1CCCN(c2ccn3cc(-c4ccc(F)cc4)nc3n2)CC1 | 81.6 µg/mL (≈ 221 µM) | 8.02 µM | 7.8 µg/mL (≈ 21.1 µM) | 35.8 µg/mL (≈ 96.9 µM) | > 300 µM | 38.7 µM | 262 µM | 47.2 µg/mL (≈ 128 µM) | 18.6 µg/mL (≈ 50.4 µM) | – | – | – | – |
| O=C(C1CC1)N1CCCN(c2ccn3cc(-c4ccc(F)cc4)nc3n2)CC1 | > 100 µg/mL | 144 µM | 94.7 µg/mL (≈ 250 µM) | 88.6 µg/mL (≈ 234 µM) | > 300 µM | 18.8 µM | > 300 µM | 92.4 µg/mL (≈ 244 µM) | > 100 µg/mL | – | – | – | – |
| O=C(c1ccc(Cl)cc1)N1CCCN(c2ccn3cc(-c4ccc(F)cc4)nc3n2)CC1 | > 100 µg/mL | 110 µM | 88.2 µg/mL (≈ 196 µM) | 58.6 µg/mL (≈ 130 µM) | 15.2 µM | > 300 µM | 8.55 µM | 58.6 µg/mL (≈ 130 µM) | > 100 µg/mL | – | – | – | – |
| CN(C)C(=O)N1CCCN(c2ccn3cc(-c4ccc(F)cc4)nc3n2)CC1 | 4.6 µg/mL (≈ 12 µM) | 5.98 µM | 0.86 µg/mL (≈ 2.25 µM) | 18.6 µg/mL (≈ 48.6 µM) | 10.6 µM | 71.5 µM | > 300 µM | 15.8 µg/mL (≈ 41.3 µM) | 1.8 µg/mL (≈ 4.71 µM) | – | – | – | – |
| CC(=O)N1CCCN(c2ccn3cc(-c4ccc(F)cc4)nc3n2)CC1 | 9.8 µg/mL (≈ 27.7 µM) | 103 µM | 0.92 µg/mL (≈ 2.6 µM) | 84.2 µg/mL (≈ 238 µM) | > 300 µM | 105 µM | 220 µM | > 100 µg/mL | 12.6 µg/mL (≈ 35.7 µM) | – | – | – | – |
| COc1cc([C@@H]2c3cc4c(cc3[C@@H](O[C@@H]3O[C@@H]5CO[C@@H](C)O[C@H]5[C@H](O)[C@H]3O)[C@H]3COC(=O)[C@H]23)OCO4)cc(OC)c1O [ETOPOSIDE] | – | 10.4 µM | – | – | 9.8 µM | 2.39 µM | 7.43 µM | – | – | – | – | – | – |
| O=S(=O)(C1CC1)N1CCCN(c2ccn3cc(-c4ccc(F)cc4)nc3n2)CC1 | 14.6 µg/mL (≈ 35.1 µM) | > 300 µM | 34.6 µg/mL (≈ 83.3 µM) | 48.4 µg/mL (≈ 116 µM) | 40.4 µM | > 300 µM | 33.5 µM | 64.6 µg/mL (≈ 155 µM) | 28.2 µg/mL (≈ 67.9 µM) | – | – | – | – |
| CC1(C)S[C@@H]2[C@H](NC(=O)[C@H](N)c3ccccc3)C(=O)N2[C@H]1C(=O)O [AMPICILLIN] | – | – | – | 22 µg/mL (≈ 63 µM) | – | – | – | 22 µg/mL (≈ 63 µM) | – | – | – | – | – |
| O=C(Cc1ccccc1)N1CCCN(c2ccn3cc(-c4ccc(F)cc4)nc3n2)CC1 | > 100 µg/mL | 262 µM | 8.4 µg/mL (≈ 19.6 µM) | 38.6 µg/mL (≈ 89.9 µM) | > 300 µM | 17.4 µM | > 300 µM | 34.2 µg/mL (≈ 79.6 µM) | 10.2 µg/mL (≈ 23.7 µM) | – | – | – | – |
| CN(C)S(=O)(=O)N1CCCN(c2ccn3cc(-c4ccc(F)cc4)nc3n2)CC1 | 8.2 µg/mL (≈ 19.6 µM) | 29.9 µM | 1.4 µg/mL (≈ 3.35 µM) | 9.6 µg/mL (≈ 22.9 µM) | > 300 µM | > 300 µM | > 300 µM | 10.2 µg/mL (≈ 24.4 µM) | 3.8 µg/mL (≈ 9.08 µM) | – | – | – | – |
| N#Cc1ccc(S(=O)(=O)N2CCCN(c3ccn4cc(-c5ccc(F)cc5)nc4n3)CC2)cc1 | 68.1 µg/mL (≈ 143 µM) | > 300 µM | 58.6 µg/mL (≈ 123 µM) | 24.8 µg/mL (≈ 52 µM) | > 300 µM | 22.3 µM | > 300 µM | 21.7 µg/mL (≈ 45.5 µM) | 34.2 µg/mL (≈ 71.8 µM) | – | – | – | – |
| O=C(C1CCCCC1)N1CCCN(c2ccn3cc(-c4ccc(F)cc4)nc3n2)CC1 | > 100 µg/mL | 104 µM | > 100 µg/mL | > 100 µg/mL | 183 µM | 14.5 µM | 170 µM | > 100 µg/mL | 44.2 µg/mL (≈ 105 µM) | – | – | – | – |
| C[C@@H]1[C@H](O)[C@@H](C)/C=C/C=C/C=C/C=C/C=C/C=C/C=C/[C@H](O[C@@H]2O[C@H](C)[C@@H](O)[C@H](N)[C@@H]2O)C[C@@H]2O[C@](O)(C[C@@H](O)C[C@@H](O)[C@H](O)CC[C@@H](O)C[C@@H](O)CC(=O)O[C@H]1C)C[C@H](O)[C@H]2C(=O)O [AMPHOTERICIN B] | 8 µg/mL (≈ 8.66 µM) | – | – | – | – | – | – | – | – | – | – | – | – |
| GENTAMICIN | – | – | – | – | – | – | – | – | – | – | 3 µg/mL | 6 µg/mL | – |
| COc1cccc(S(=O)(=O)N2CCCN(c3ccn4cc(-c5ccc(F)cc5)nc4n3)CC2)c1 | > 100 µg/mL | 4.14 µM | 33.8 µg/mL (≈ 70.2 µM) | 84.8 µg/mL (≈ 176 µM) | 6.24 µM | 229 µM | 6.54 µM | 84.4 µg/mL (≈ 175 µM) | 22.1 µg/mL (≈ 45.9 µM) | 1.13 | – | – | 1.57 |
